From ChEMBL document CHEMBL1201862, “PubChem BioAssay data set” (2004)
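Cells were grown in 96-well plates and exposed to each compound for 48 hours at five concentrations; endpoints were interpolated linearly between bracketing concentrations, or set to the highest concentration if not reached. The concentration for 50% growth inhibition is given as GI50.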 Calls of active or inactive are those of the source. No stated cut-off is given here; in the data, active = GI50 up to about 1.1 µM and inactive = higher.

Legend:
Test in all cases: NCI-60 cell line screen, 48 h
DU-145 = test system: DU-145
NCI-H23 = test system: NCI-H23
SNB-75 = test system: SNB-75
SW-620 = test system: SW-620
KM12 = test system: KM12
UO-31 = test system: UO-31
SF-539 = test system: SF-539
Hs-578T = test system: Hs-578T
Malme-3M = test system: Malme-3M
SF-295 = test system: SF-295
SR = test system: SR
HT-29 = test system: HT-29
U-251 = test system: U-251
RXF 393 = test system: RXF 393
LOX IMVI = test system: LOX IMVI
SF-268 = test system: SF-268
CCRF-CEM = test system: CCRF-CEM
UACC-62 = test system: UACC-62
PC-3 = test system: PC-3
A549 = test system: A549

| SMILES | GI50 (DU-145) | GI50 (NCI-H23) | GI50 (SNB-75) | GI50 (SW-620) | GI50 (KM12) | GI50 (UO-31) | GI50 (SF-539) | GI50 (Hs-578T) | GI50 (Malme-3M) | GI50 (SF-295) | GI50 (SR) | GI50 (HT-29) | GI50 (U-251) | GI50 (RXF 393) | GI50 (LOX IMVI) | GI50 (SF-268) | GI50 (CCRF-CEM) | GI50 (UACC-62) | GI50 (PC-3) | GI50 (A549) |
| --- | --- | --- | --- | --- | --- | --- | --- | --- | --- | --- | --- | --- | --- | --- | --- | --- | --- | --- | --- | --- |
| OCCn1cnc2c(SCc3ccccc3)ncnc21 | > 100 µM (inactive) | > 100 µM (inactive) | > 100 µM (inactive) | > 100 µM (inactive) | > 100 µM (inactive) | > 100 µM (inactive) | 87.5 µM (inactive) | 69.7 µM (inactive) | > 100 µM (inactive) | > 100 µM (inactive) | 19.5 µM (inactive) | > 100 µM (inactive) | 52.4 µM (inactive) | > 100 µM (inactive) | 61.1 µM (inactive) | 71.8 µM (inactive) | 39.1 µM (inactive) | > 100 µM (inactive) | 61 µM (inactive) | > 100 µM (inactive) |
| NC(Cc1ccccc1)c1nn[nH]n1 (stereo not given) | > 100 µM (inactive) | > 100 µM (inactive) | > 100 µM (inactive) | > 100 µM (inactive) | > 100 µM (inactive) | > 100 µM (inactive) | > 100 µM (inactive) | > 100 µM (inactive) | > 100 µM (inactive) | > 100 µM (inactive) | > 100 µM (inactive) | > 100 µM (inactive) | > 100 µM (inactive) | > 100 µM (inactive) | > 100 µM (inactive) | > 100 µM (inactive) | > 100 µM (inactive) | > 100 µM (inactive) | > 100 µM (inactive) | > 100 µM (inactive) |
| CCOP(=O)(OCC)C(C#N)Cc1ccco1 (stereo not given) | 1.98 µM (inactive) | > 10 µM (inactive) | 5.94 µM (inactive) | > 10 µM (inactive) | > 10 µM (inactive) | > 10 µM (inactive) | > 10 µM (inactive) | > 10 µM (inactive) | > 10 µM (inactive) | > 10 µM (inactive) | > 10 µM (inactive) | > 10 µM (inactive) | > 10 µM (inactive) | > 10 µM (inactive) | > 10 µM (inactive) | > 10 µM (inactive) | > 10 µM (inactive) | > 10 µM (inactive) | > 10 µM (inactive) | > 10 µM (inactive) |
| CC(C)(C)NNc1c([N+](=O)[O-])cnn(-c2ccccc2)c1=O | 12.8 µM (inactive) | 4.82 µM (inactive) | 9.86 µM (inactive) | 1.76 µM (inactive) | 10.4 µM (inactive) | 6.12 µM (inactive) | 13.2 µM (inactive) | 7.76 µM (inactive) | 4.05 µM (inactive) | 6.28 µM (inactive) | 1.58 µM (inactive) | 2.84 µM (inactive) | 3.2 µM (inactive) | 8.32 µM (inactive) | 1.79 µM (inactive) | 9.82 µM (inactive) | 0.944 µM (active) | 3.5 µM (inactive) | 1.83 µM (inactive) | 15.3 µM (inactive) |
| Cc1nc(-n2nc(-c3ccccc3)cc2-c2ccccc2)sc1C(=O)/C=C/c1ccc([N+](=O)[O-])cc1 | 21.8 µM (inactive) | 18.4 µM (inactive) | 2.69 µM (inactive) | 21.4 µM (inactive) | 9.29 µM (inactive) | 14 µM (inactive) | 11.2 µM (inactive) | 27.7 µM (inactive) | 34.2 µM (inactive) | > 46.6 µM (inactive) | 2.86 µM (inactive) | 16.3 µM (inactive) | 16 µM (inactive) | 16.7 µM (inactive) | 15.7 µM (inactive) | 16.7 µM (inactive) | 14 µM (inactive) | 19.4 µM (inactive) | 17.2 µM (inactive) | > 59.7 µM (inactive) |
| C[N+]1(C)[C@@H]2CC[C@H]1C[C@@H](OC(=O)C(CO)c1ccccc1)C2 (stereo not given in full) [ATROPINE METHYLBROMIDE] | > 100 µM (inactive) | > 100 µM (inactive) | > 100 µM (inactive) | > 100 µM (inactive) | > 100 µM (inactive) | > 100 µM (inactive) | > 100 µM (inactive) | > 100 µM (inactive) | > 100 µM (inactive) | > 100 µM (inactive) | > 100 µM (inactive) | > 100 µM (inactive) | > 100 µM (inactive) | > 100 µM (inactive) | > 100 µM (inactive) | > 100 µM (inactive) | > 100 µM (inactive) | > 100 µM (inactive) | > 100 µM (inactive) | > 100 µM (inactive) |
